In PMC11594329, “Development of LAT1-Selective Nuclear Medicine Therapeutics Using Astatine-211” (International Journal of Molecular Sciences, 2024):

How the values were obtained:
LAT1-Tet/HEK293 cells = assay: Uptake versus LAT1 expression level (Dox-induced) in LAT1-Tet/HEK293 cells; type: cell-based; details: collection 30 min after treatment
Protocol: Each cell line was seeded in 24 wells at 1 × 10^5 cells/mL and allowed to become sub-confluent on the day of the experiment. Cells were washed with PBS (-) (Fujifilm Wako Pure Chemical, Osaka, Japan) prior to the addition of the compound, which was then replaced with uptake buffer. After treating the cells with the same dose, they were collected at predetermined time points. The cell dose was measured using a γ-counter (Wizard^2 2480; PerkinElmer, Waltham, MA, USA), and the protein content of the sample was determined. Protein content was measured using the BCA method, and the dose was corrected using the protein content (Protein Assay BCA kit, Fujifilm Wako Pure Chemical).
Figure 2 Comparison of uptake between the labeled compounds. (A) Relation between uptake ratio and LAT1 expression level. Uptake ratios were compared between LAT1-Tet/HEK293 cells. The Y-axis represents the uptake ratio, and the X-axis is concentration of Doxycycline (Dox) (TaKaRa Bio, Shiga, Japan). The collection time was 30 min after treatment. The expression of LAT1 increased with increasing amounts of Dox. (B) Comparison of uptake in PANC-1 cell line. The collection times were 0.5, 1, 5 and 10 min after treatment.
The PANC-1 cell line was obtained from the RIKEN Cell Bank and maintained in RPMI 1640 medium (Fujifilm Wako Pure Chemical, Osaka, Japan) supplemented with 10% inactivated fetal bovine serum (Thermo Fisher Scientific, Waltham, MA, USA). Mock/HEK293, LAT1/HEK293, and LAT2/HEK203 cells were kindly provided by Dr. Kanai. Cell lines controlling LAT1 expression were constructed using the Tet-on system. HEK293 cells were obtained from the RIKEN Cell Bank and maintained in E-MEM (Fujifilm Wako Pure Chemical) supplemented with 10% inactivated fetal bovine serum (Thermo Fisher Scientific) and non-essential amino acids (Fujifilm Wako Pure Chemical). The expression vectors were purchased from VectorBuilder, Inc. (Kanagawa, Japan). The purified viral particle genes were transfected into HEK293 cells. Drug selection and cloning of the cell line (Tet-LAT1/HEK293) were performed. […]

PANC-1 tumor model = assay: Tissue distribution in nude mice (PANC-1 tumor model); type: in vivo, BALB/c nu/nu mice; details: nude mice (PANC-1 tumor model)
Protocol: BALB/c nu/nu mice (male, 5 weeks old) were purchased from Japan SLC (Shizuoka, Japan) and subcutaneously transplanted at a density of 1 × 10^7 cells/mouse. PANC-1 cells that reached the logarithmic growth phase were transplanted subcutaneously by mixing a 1 × 10^8 cells/mL cell suspension with an equivalent volume of Matrigel (Corning, Corning, NY, USA) to obtain 1 × 10^7 cells per mouse. Experiments were performed after the size of the transplanted tumor had exceeded 50 mm^3. The doses in the distribution experiments were as follows: ^211At-AAMT-OH-L (0.501 ± 0.011 MBq/mouse, 19.91 ± 0.59 g, n = 3) and ^211At-AAMT-O-Me-L (0.384 ± 0.003 MBq/mouse, 19.18 ± 0.38 g, n = 6 for Table 3), ^211At-AAMT-O-Me-L (158.10 ± 2.94 kBq/mouse, 19.27 ± 0.64 g, n = 6) and ^211At-AAMT-O-Me-D (135.08 ± 2.35 kBq/mouse, 18.64 ± 0.97 g, n = 6), ^211At-AAMT-O-Et-L (0.682 ± 0.011 MBq/mouse, 20.25 ± 1.41 g, n = 6), ^211At-AAMT-O-Pr-L (0.927 ± 0.020 MBq/mouse, 21.74 ± 0.37 g, n = 6).

[1] = Tissue distribution in ICR mice (normal animals); type: in vivo
Excerpt: ICR mice (male, 5 weeks old) were purchased from Japan SLC (Shizuoka, Japan) and acclimated for one week prior to use. The doses in the distribution experiments were as follows: ^211At-AAMT-O-Me-L (0.407 ± 0.005 MBq/mouse, 31.64 ± 0.76 g, n = 6), ^211At-AAMT-O-Me-D (0.351 ± 0.004 MBq/mouse, 31.44 ± 0.94 g, n = 6), ^211At-AAMT-O-Et-L (0.685 ± 0.010 MBq/mouse, 24.14 ± 3.31 g, n = 6), ^211At-AAMT-O-Pr-L (1.09 ± 0.06 MBq/mouse, 26.33 ± 0.39 g, n = 6)

Structure (SMILES): CCCOc1ccc(C[C@](C)(N)C(=O)O)cc1[211At] [^211At-AAMT-O-Pr-L]
- Uptake ratio versus LAT1 expression (doxycycline concentration) (LAT1-Tet/HEK293 cells): lower cellular uptake when LAT1 expression increased
- Tissue distribution, Bladder (PANC-1 tumor model; 10 min after injection): 18.24 ± 4.50 %ID/g
- Tissue distribution, Blood (PANC-1 tumor model; 10 min after injection): 4.33 ± 0.45 %ID/g
- Tissue distribution, Bone (PANC-1 tumor model; 10 min after injection): 3.50 ± 0.13 %ID/g
- Tissue distribution, Brain (PANC-1 tumor model; 10 min after injection): 1.01 ± 0.04 %ID/g
- Tissue distribution, Cecum (PANC-1 tumor model; 10 min after injection): 3.35 ± 0.30 %ID/g
- Tissue distribution, Colon (PANC-1 tumor model; 10 min after injection): 4.56 ± 0.31 %ID/g
- Tissue distribution, Heart (PANC-1 tumor model; 10 min after injection): 9.66 ± 0.87 %ID/g
- Tissue distribution, Kidney (PANC-1 tumor model; 10 min after injection): 10.29 ± 0.97 %ID/g
- Tissue distribution, Liver (PANC-1 tumor model; 10 min after injection): 3.67 ± 0.41 %ID/g
- Tissue distribution, Lung (PANC-1 tumor model; 10 min after injection): 18.16 ± 1.88 %ID/g
- Tissue distribution, Pancreas (PANC-1 tumor model; 10 min after injection): 10.85 ± 1.53 %ID/g
- Tissue distribution, Salivary glands (PANC-1 tumor model; 10 min after injection): 11.89 ± 0.06 %ID/g
- Tissue distribution, Small intestine (PANC-1 tumor model; 10 min after injection): 6.80 ± 0.63 %ID/g
- Tissue distribution, Spleen (PANC-1 tumor model; 10 min after injection): 11.84 ± 1.91 %ID/g
- Tissue distribution, Stomach (PANC-1 tumor model; 10 min after injection): 7.31 ± 0.30 %ID/g
- Tissue distribution, Testis (PANC-1 tumor model; 10 min after injection): 3.54 ± 0.28 %ID/g
- Tissue distribution, Thyroid (PANC-1 tumor model; 10 min after injection): 9.74 ± 0.39 %ID/g
- Tissue distribution, Tumor (PANC-1 tumor model; 10 min after injection): 5.91 ± 0.27 %ID/g
- Tissue distribution, Bladder (PANC-1 tumor model; 1 h after injection): 18.00 ± 0.97 %ID/g
- Tissue distribution, Blood (PANC-1 tumor model; 1 h after injection): 3.09 ± 0.25 %ID/g
- Tissue distribution, Bone (PANC-1 tumor model; 1 h after injection): 2.03 ± 0.45 %ID/g
- Tissue distribution, Brain (PANC-1 tumor model; 1 h after injection): 0.79 ± 0.13 %ID/g
- Tissue distribution, Cecum (PANC-1 tumor model; 1 h after injection): 3.07 ± 1.06 %ID/g
- Tissue distribution, Colon (PANC-1 tumor model; 1 h after injection): 3.27 ± 0.46 %ID/g
- Tissue distribution, Heart (PANC-1 tumor model; 1 h after injection): 5.39 ± 1.06 %ID/g
- Tissue distribution, Kidney (PANC-1 tumor model; 1 h after injection): 5.76 ± 0.67 %ID/g
- Tissue distribution, Liver (PANC-1 tumor model; 1 h after injection): 2.41 ± 0.24 %ID/g
- Tissue distribution, Lung (PANC-1 tumor model; 1 h after injection): 14.15 ± 1.78 %ID/g
- Tissue distribution, Pancreas (PANC-1 tumor model; 1 h after injection): 3.54 ± 0.49 %ID/g
- Tissue distribution, Salivary glands (PANC-1 tumor model; 1 h after injection): 20.98 ± 3.26 %ID/g
- Tissue distribution, Small intestine (PANC-1 tumor model; 1 h after injection): 5.08 ± 0.53 %ID/g
- Tissue distribution, Spleen (PANC-1 tumor model; 1 h after injection): 17.42 ± 6.48 %ID/g
- Tissue distribution, Testis (PANC-1 tumor model; 1 h after injection): 3.56 ± 0.41 %ID/g
- Tissue distribution, Thyroid (PANC-1 tumor model; 1 h after injection): 16.44 ± 1.16 %ID/g
- Tissue distribution, Tumor (PANC-1 tumor model; 1 h after injection): 9.45 ± 0.82 %ID/g
- Tissue distribution, Bladder ([1]; 1 h after injection): 20.82 ± 5.36 %ID/g
- Tissue distribution, Blood ([1]; 1 h after injection): 1.77 ± 0.15 %ID/g
- Tissue distribution, Bone ([1]; 1 h after injection): 1.79 ± 0.12 %ID/g
- Tissue distribution, Brain ([1]; 1 h after injection): 0.25 ± 0.02 %ID/g
- Tissue distribution, Cecum ([1]; 1 h after injection): 1.49 ± 0.14 %ID/g
- Tissue distribution, Colon ([1]; 1 h after injection): 1.35 ± 0.07 %ID/g
- Tissue distribution, Heart ([1]; 1 h after injection): 3.14 ± 0.20 %ID/g
- Tissue distribution, Kidney ([1]; 1 h after injection): 2.25 ± 0.19 %ID/g
- Tissue distribution, Liver ([1]; 1 h after injection): 1.18 ± 0.08 %ID/g
- Tissue distribution, Lung ([1]; 1 h after injection): 6.54 ± 0.34 %ID/g
- Tissue distribution, Pancreas ([1]; 1 h after injection): 2.55 ± 0.60 %ID/g
- Tissue distribution, Salivary glands ([1]; 1 h after injection): 14.23 ± 3.16 %ID/g
- Tissue distribution, Small intestine ([1]; 1 h after injection): 1.83 ± 0.23 %ID/g
- Tissue distribution, Spleen ([1]; 1 h after injection): 4.11 ± 0.11 %ID/g
- Tissue distribution, Stomach ([1]; 1 h after injection): 13.55 ± 2.66 %ID/g
- Tissue distribution, Testis ([1]; 1 h after injection): 3.66 ± 0.14 %ID/g
- Tissue distribution, Thymus ([1]; 1 h after injection): 2.03 ± 0.28 %ID/g
- Tissue distribution, Thyroid ([1]; 1 h after injection): 23.08 ± 3.56 %ID/g
- Tissue distribution, Bladder ([1]; 3 h after injection): 5.37 ± 0.73 %ID/g
- Tissue distribution, Blood ([1]; 3 h after injection): 1.30 ± 0.12 %ID/g
- Tissue distribution, Bone ([1]; 3 h after injection): 1.32 ± 0.12 %ID/g
- Tissue distribution, Brain ([1]; 3 h after injection): 0.16 ± 0.01 %ID/g
- Tissue distribution, Cecum ([1]; 3 h after injection): 1.13 ± 0.25 %ID/g
- Tissue distribution, Colon ([1]; 3 h after injection): 1.29 ± 0.25 %ID/g
- Tissue distribution, Heart ([1]; 3 h after injection): 2.16 ± 0.18 %ID/g
- Tissue distribution, Kidney ([1]; 3 h after injection): 1.93 ± 0.29 %ID/g
- Tissue distribution, Liver ([1]; 3 h after injection): 0.82 ± 0.14 %ID/g
- Tissue distribution, Lung ([1]; 3 h after injection): 5.09 ± 0.43 %ID/g
- Tissue distribution, Pancreas ([1]; 3 h after injection): 1.60 ± 0.31 %ID/g
- Tissue distribution, Salivary glands ([1]; 3 h after injection): 11.39 ± 0.33 %ID/g
- Tissue distribution, Small intestine ([1]; 3 h after injection): 1.92 ± 0.12 %ID/g
- Tissue distribution, Spleen ([1]; 3 h after injection): 3.56 ± 0.54 %ID/g
- Tissue distribution, Stomach ([1]; 3 h after injection): 32.05 ± 3.31 %ID/g
- Tissue distribution, Testis ([1]; 3 h after injection): 2.34 ± 0.42 %ID/g
- Tissue distribution, Thymus ([1]; 3 h after injection): 1.76 ± 0.25 %ID/g
- Tissue distribution, Thyroid ([1]; 3 h after injection): 24.75 ± 3.77 %ID/g
